According to patent US12002595B2, “Separation of metal ions by liquid-liquid extraction” (priority 2016, dated 2024):
Converted amounts (≈) assume the structure as drawn. Like-named read-outs stand apart in the source and are kept apart here.

Assays:
[1] = Extraction by HDEHP at constant pH with 3,4,3-LI(1,2-HOPO) as hold-back reagent; conditions: 1 mM ligand; for % Extraction: 0.1 M HNO3/1.9 M NaNO3, extraction of ^153Gadolinium(III); for SF Gd^3+/Pu^4+: to be seen as lower limit
Procedure: (§1) In FIG. 26, aqueous phase: [ligand]=1 mM, buffer 0.1 M HNO3/1.9 M NaNO3. Organic phase: HDEHP diluted in kerosene. [HDEHP]=0.05, 0.10, 0.25, 0.50, 1.0, or 2.0 M. T=25° C. Volume organic phase/Volume aqueous phase=1. Initial metal concentrations: [Pu-242]=10 μM, [Am-243]=0.25 μM, or [Gd-153]=0.16 nM. Phases analyzed after one contact. Contact time: 30 min.
The separation factor values given here must been seen as lower limit since the extraction of Pu(IV) is near zero. […]

[2] = as above; conditions: 1 mM ligand, 0.1 M HNO3/1.9 M NaNO3; for % Extraction: extraction of ^243Americium(III)
Procedure: as §1
The separation factor values given here must been seen as lower limit since the extraction of Pu(IV) is near zero.
In FIG. 28, aqueous phase: [ligand]=1 mM, buffer 0.1 M HNO3/1.9 M NaNO3. Organic phase: HDEHP diluted in kerosene. [HDEHP]=0.05, 0.10, 0.25, 0.50, 1.0, or 2.0 M. T=25° C. Volume organic phase/Volume aqueous phase=1. Initial metal concentrations: [Am-243]=0.25 μM, or [Gd-153]=0.16 nM. Phases analyzed after one contact. Contact time: 30 min. Corresponding separation factors (SF) are given on the right Y-axis. SF Gd/Am=Ratio [Gd]/[Am] in the final organic phase/Ratio [Gd]/[Am] in the initial aqueous solution.

[3] = Extraction by TODGA from HNO3 in the absence or presence of 1 mM 343HOPO
Procedure: Aqueous phase: 0 or 1 mM 343HOPO in HNO3. Organic phase: 0.1 M TODGA in kerosene. T=25° C. O/A=1, one contact. Points with arrows are lower limits.
Aqueous phase: 1 mM 343HOPO in 3 M HNO3. Organic phase: TODGA in kerosene. O/A=1. One contact. T=25° C.
(§2) For Example 20—Example 24, pH measurements were performed with a glass electrode (Metrohm-Micro Combi-response to [H+]) calibrated at 25.0° C. using three NIST standards. Extraction samples were analyzed by liquid scintillation counting (LSC). The distribution coefficient, D(M), of a given metal, M, is defined in Eq. 1, where [M]organic and [M]aqueous are the respective total concentrations of M in the organic and aqueous layers, after extraction. Both concentrations are proportional to the volumetric activity (in Bq/L) determined by LSC. The separation factor, SFM1/M2, between two metals, M1 and M2, and extraction yield were calculated according to Eq. 2 and Eq. 3, respectively.
(§3) In a typical experiment, the solvent (extractant diluted in kerosene) was pre-conditioned by shaking one volume of solvent with three volumes of aqueous phase (typically HNO3) at room temperature for 1 h, thrice. For radioisotope extractions, at least 400 μL aqueous phase (typically containing HNO3, a chelator and a radioisotope) and solvent were placed in air-tight screw-capped plastic tubes, triply-contained, and shaken in a thermoshaker at 300 rpm, 25° C., for at least 30 min. Samples were then centrifuged for 5 min at 3000 rpm and phases separated before analysis. LSC analyses were performed on a Packard Tri-Carb B4430 instrument (Perkin Elmer) after mixing sample aliquots or sample dilution aliquots (10 to 200 μL) with 10 mL of scintillation cocktail (UltimaGold LLT). Samples were counted for at least 6 min and results were background subtracted. The analytical samples contained between 0 and 800,000 CPM. Mixtures of ^249Bk and ^249Cf were analyzed using α/β discrimination and energy windows were set to 0-50 keV for low-energy β particles of ^249Bk and 50-1000 keV for α particles of ^249Cf. ^243Am and ^225Ac samples were counted at secular equilibrium.

[4] = Cd^2+; 25° C.; cited from earlier work
[5] = Pb^2+; 25° C.; cited from earlier work
[6] = Back-extraction from 30% TBP in kerosene (modified PUREX) with 343HOPO; conditions: 1 mM 343HOPO, up to 8 M HNO3
Procedure: Dotted lines: separation factor U/Pu. Organic phase: 30% TBP in kerosene.
as §2
In a typical experiment, the solvent (extractant diluted in kerosene) was pre-conditioned by shaking one volume of solvent with three volumes of aqueous phase (typically HNO3) at room temperature for 1 h, thrice. […] Samples were counted for at least 6 min and results were background subtracted. […] Mixtures of ^249Bk and ^249Cf were analyzed using α/β discrimination and energy windows were set to 0-50 keV for low-energy β particles of ^249Bk and 50-1000 keV for α particles of ^249Cf. ^243Am and ^225Ac samples were counted at secular equilibrium.

[7] = La^3+; 25° C.; cited from earlier work
[8] = Aqueous solubility of the ligand; assay type: physicochemical; conditions: water; room temperature
[9] = Extraction by TODGA from HNO3 in the absence or presence of 1 mM 343HOPO; remark: listed apart in the source
Procedure: Organic phase: 0.1 M TODGA in kerosene. Aqueous solvent: HNO3. T=25° C. O/A=1, one contact. Points with arrows are lower limits.
as §2, §3

[10] = Persistence of the metal complex versus acidity; assay type: binding; conditions: Sn^4+

In the case of `O=C(NCCCN(CCCCN(CCCNC(=O)c1cccc(=O)n1O)C(=O)c1cccc(=O)n1O)C(=O)c1cccc(=O)n1O)c1cccc(=O)n1O` [3,4,3-LI(1,2-HOPO)], the “% Extraction” value ([1]; HDEHP 0.05 M) is reported as 4.92%, the “SF Gd^3+/Pu^4+” value ([1]; HDEHP 0.05 M) is reported as 331 and the “% Extraction” value ([1]; HDEHP 0.10 M) is reported as 23.79%. For the same molecule, the “SF Gd^3+/Pu^4+” value ([1]; HDEHP 0.10 M) was 1948, the “% Extraction” value ([1]; HDEHP 0.25 M) was 73.91% and the “SF Gd^3+/Pu^4+” value ([1]; HDEHP 0.25 M) was 5976. For the same molecule, the “% Extraction” value ([1]; HDEHP 0.50 M) was 92.15%, the “SF Gd^3+/Pu^4+” value ([1]; HDEHP 0.50 M) was 39182 and the “% Extraction” value ([1]; HDEHP 1.00 M) was 97.85%. The “SF Gd^3+/Pu^4+” value ([1]; HDEHP 1.00 M) was 28460, the “% Extraction” value ([1]; HDEHP 2.00 M) was 99.26% and the “SF Gd^3+/Pu^4+” value ([1]; HDEHP 2.00 M) was 64723. The “SF Gd^3+/Am^3+” value ([2]; HDEHP 0.05 M) was 24.1, the “% Extraction” value ([2]; HDEHP 0.05 M) was 0.21% and the “SF Gd^3+/Am^3+” value ([2]; HDEHP 0.10 M) was 23.3. For the same molecule, the “% Extraction” value ([2]; HDEHP 0.10 M) was 1.32%, the “SF Gd^3+/Am^3+” value ([2]; HDEHP 0.25 M) was 25.3 and the “% Extraction” value ([2]; HDEHP 0.25 M) was 10.08%. The “SF Gd^3+/Am^3+” value ([2]; HDEHP 0.50 M) was 27.0, the “% Extraction” value ([2]; HDEHP 0.50 M) was 30.27% and the “SF Gd^3+/Am^3+” value ([2]; HDEHP 1.00 M) was 45.6. For the same molecule, the “% Extraction” value ([2]; HDEHP 1.00 M) was 49.98%, the “SF Gd^3+/Am^3+” value ([2]; HDEHP 2.00 M) was 99.8 and the “% Extraction” value ([2]; HDEHP 2.00 M) was 57.29%. The “SF, isolation of Bk from adjacent actinides and fission products” value ([3]; one-step separation method, summary statement) was > 3×10^6, the SFCf/Bk ([3]; regardless of the TODGA and HNO3 concentrations) was > 1,000,000 and the Bk extracted ([3]; throughout the acidity range, 1 mM 343HOPO, 0.1 M TODGA) was “less than 1%”. The “log βML” value [4] was 16.1 ± 0.3, the “log βML” value [5] was 18.0 ± 0.2 and the SFU/Pu [6] was ≤ 5,800. The “log βML” value [7] was 16.4 ± 0.4, the solubility [8] was 1000 mM (≈ 751 mg/mL) and the SFU/Pu ([9]; 1 mM 343HOPO, 0.1 M TODGA in kerosene) was “around 50,000”. The “SF values between the trivalent ions and Pu^4+” value ([9]; 1 mM 343HOPO, 0.1 M TODGA in kerosene, LoD reached) was “above 450,000,000”, the “separation factor for redox-free Pu purification against uranyl ions and trivalent actinides or fission products” value ([9]; summary statement) was “over 10^8” and the “acidity range over which the ligand stays bound” value [10] was “from pH 8 to 1 M HCl”.
